Reference: patent publication US11370788B2, “Substituted imidazo[4,5-c]quinoline compounds with an N-1 branched group” (3M INNOVATIVE PROPERTIES COMPANY, priority 2018, dated 2022)

System: Human peripheral blood mononuclear cells (PBMC)
Assay: Cytokine Induction in Human Cells (PBMC)
Format: cell-based
Conditions: 21-24 hours culture, lowest concentration giving cytokine at least 2× negative control; for MEC to Induce Cytokine IFN-alpha: ELISA; for MEC to Induce Cytokine IFN-gamma / MEC to Induce Cytokine TNF-alpha: multiplex bead assay
Procedure: Whole blood was obtained from healthy human donors and collected by venipuncture into vacutainer tubes or syringes containing EDTA. Human peripheral blood mononuclear cells (PBMC) were purified from the whole blood by density gradient centrifugation. Histopaque 1077 (15 mL, Sigma, St. Louis, Mo.) was transferred to 6×50 mL sterile polypropylene conical tubes. The Histopaque was overlayed with 15-25 mL of blood diluted 1:2 in Hank's Balanced Salts Solution (HBSS) (Gibco, Life Technology, Grand Island, N.Y.). The tubes were then centrifuged at 1370 rpm for 30 minutes at 20° C., with no brake (400λg, GH 3.8A Rotor).
The interface (buffy coat) containing the PBMC was collected and placed in a new sterile 50 mL conical polypropylene centrifuge tube. The PBMC were mixed with an equal volume of HBSS (about 20 mL from the interface and about 20 mL of HBSS), and then centrifuged at 1090 rpm, 10 minutes, 20° C., with brake (270λg, GH 3.8A Rotor). After completing centrifugation, the cells were resuspended in 2 to 3 mL ACK Red blood cell lysis buffer (ammonium chloride potassium solution, Gibco, Life Technology) and incubated for 2-5 minutes at 20° C. Next, HBSS (40 mL) was added to the cells, and the sample was centrifuged at 270×g for 10 minutes at 20° C. The supernatant was decanted, and the cell pellet was resuspended in 5 mL AIM V Medium (Gibco, Life Technology). Cell aggregates and debris were removed by filtering the cell solution through a BD Falcon 70 micron nylon cell strainer (BD Biosciences, San Jose, Calif.).
The number of viable cells was determined by counting with a Miltenyi FACS instrument (Miltenyi Biotec Inc., San Diego, Calif.) or by using a hemacytometer. For determining cell viability with a hemacytometer, the cells were diluted 1/10 in 0.4% trypan blue and HBSS (specifically, 50 microliter of trypan blue+40 microliter of HBSS+10 microliter of cell solution were added to a microfuge tube and mixed). Ten microliters of the diluted cells were then applied to the hemacytometer, and the number of viable PBMC were determined by microscopy.
The PBMC sample was then resuspended in 96-well plates at a concentration of 8×10^5 cells/well in 0.1 mL of AIM-V medium. Each compound was solubilized in DMSO to create a 3 mM stock solution. The stock solution was then further diluted with AIM-V medium to prepare the serial dilutions. The diluted compound (100 microliters) was then transferred to the PBMCs to achieve final compound concentrations of 30, 10, 3.3, 1.1, 0.37, 0.12, 0.04, 0.01 micromolar. The plates also had both positive and negative controls. The negative control wells contained only AIM-V medium with no example compound. The positive control wells contained imiquimod serially diluted to concentrations of 30, 10, 3.3, 1.1, 0.37, 0.12, 0.04, 0.01 micromolar. The plates were then cultured at 37° C./5% CO2 for 21-24 hours. Cell-free supernatants were harvested by centrifuging the 96-well plates at 2100 rpm, 23° C. for 10 minutes. Approximately 160 microliter of the supernatant was then stored in a NUNC 96-well plate, covered with the compression cap and stored at −80° C. until the cytokine analysis was done.
IFN-alpha cytokine levels (picograms/mL) were measured by ELISA (human IFN-alpha, pan specific, Mabtech, Cincinnati, Ohio). IFN-gamma and TNF-alpha levels (picograms/mL) were measured by multiplex bead assay (magnetic beads, R & D Systems, Minneapolis, Minn.) according to the manufacturer's instructions.
Specifically, the minimum effective concentration of each compound (micromolar) was determined as the lowest concentration of the compound that induced a measured cytokine response at a level ([…]) that was at least 2× greater than that observed with the negative control wells.

CCCCCCCCCCCCOc1ccc(C[C@@H](COCC)n2cnc3c(N)nc4ccccc4c32)cc1 [Example 1, 1-[(1 S)-1-[(4-dodecoxyphenyl)methyl]-2-ethoxy-ethyl]imidazo[4,5-c]quinolin-4-amine]
MEC to Induce Cytokine IFN-alpha: 3.3 µM | MEC to Induce Cytokine IFN-gamma: 10 µM | MEC to Induce Cytokine TNF-alpha: 3.3 µM

CCCCCCCCOc1ccc(C[C@@H](COCC)n2cnc3c(N)nc4ccccc4c32)cc1 [Example 2, 1-[(1S)-1-(ethoxymethyl)-2-(4-octoxyphenyl)ethyl]imidazo[4,5-c]quinolin-4-amine]
MEC to Induce Cytokine IFN-alpha: 0.12 µM | MEC to Induce Cytokine IFN-gamma: 0.37 µM | MEC to Induce Cytokine TNF-alpha: 0.37 µM

CCCCOc1ccc(C[C@@H](COCC)n2cnc3c(N)nc4ccccc4c32)cc1 [Example 3, 1-[(1S)-1-[(4-butoxyphenyl)methyl]-2-ethoxy-ethyl]imidazo[4,5-c]quinolin-4-amine]
MEC to Induce Cytokine IFN-alpha: ≤0.01 µM | MEC to Induce Cytokine IFN-gamma: ≤0.01 µM | MEC to Induce Cytokine TNF-alpha: ≤0.01 µM

CCCCCCOc1ccc(C[C@@H](COCC)n2cnc3c(N)nc4ccccc4c32)cc1 [Example 4, 1-[(1S)-1-(ethoxymethyl)-2-(4-hexoxyphenyl)ethyl]imidazo[4,5-c]quinolin-4-amine]
MEC to Induce Cytokine IFN-alpha: ≤0.01 µM | MEC to Induce Cytokine IFN-gamma: ≤0.01 µM | MEC to Induce Cytokine TNF-alpha: ≤0.01 µM

CCCCC(CC)COc1ccc(C[C@@H](COCC)n2cnc3c(N)nc4ccccc4c32)cc1 (stereo partly drawn) [Example 5, 1-[(1 S)-1-(ethoxymethyl)-2-[4-(2-ethylhexoxy)phenyl]ethyl]imidazo[4,5-c]quinolin-4-amine]
MEC to Induce Cytokine IFN-alpha: 0.37 µM | MEC to Induce Cytokine IFN-gamma: 0.04 µM | MEC to Induce Cytokine TNF-alpha: ≤0.01 µM

CCOC[C@H](Cc1ccc(OCc2ccccc2)cc1)n1cnc2c(N)nc3ccccc3c21 [Example 6, 1-[(1S)-1-[(4-benzyloxyphenyl)methyl]-2-ethoxy-ethyl]imidazo[4,5-c]quinolin-4-amine]
MEC to Induce Cytokine IFN-alpha: ≤0.01 µM | MEC to Induce Cytokine IFN-gamma: ≤0.01 µM | MEC to Induce Cytokine TNF-alpha: ≤0.01 µM
